Test results from patent publication US8372886B2, “Treatment of renal disorders, diabetic nephropathy and dyslipidemias” (Kiacta Sarl, priority 2005, dated 2013).

Test system: Zucker Diabetic Fatty rat (ZDF)
Assay: In vivo preventive study of renal function in the Zucker Diabetic Fatty rat model of diabetic nephropathy
Description: The compound 1,3 Propanedisulfonic Acid Disodium Salt (PDS) was selected for a preventive study of renal function in the Zucker rat (ZDF) mode.
A leading study model for DN is the inbred Zucker Diabetic Fatty rat (ZDF). Given a diabetogenic diet, the ZDF rat will closely mimic human adult onset diabetes (Type 2) and related complications including glomerulosclerosis and renal damage earlier than when fed a normal diet (i.e. 14-18 weeks of age). In addition, obesity, mild hypertension, hypertriglyceridemia, hypercholesterolemia, fasting hyperglycemia, impaired glucose tolerance and hyperinsulinemia, are all major phenotypes featured in the ZDF rat.
This pre-clinical investigation evaluates the role and efficacy of 1,3 Propanedisulfonic Acid Disodium Salt (PDS) (Eprodisate Disodium) as a preventive treatment for DN and related pathophysiology in the ZDF rat model. The primary measured outcome is the attenuation/reversal of creatinine clearance deterioration and of proteinuria. The secondary measured outcome is the impact on the metabolic status in this model.
Thirty-two, 6 week-old male ZDF rats (Charles River, St. Constant, Canada) were randomized in 2 groups, Treated (PDS; in 1% sucrose drinking solution) and Control (1% sucrose drinking solution), and studied for a period of 8 weeks. […] All rats were fed a high sucrose/high fat diabetogenic diet (Harlan™ TD95217). Body weight, food and drinking solution consumption were measured on a daily basis. Twelve rats from each group were individually housed in metabolic cages for a period of 24 hours once a week. During week 2, 3, 4 and 5, rats placed in metabolic cages received drinking solution but were placed in fasting condition, whereas during weeks 1, […], 6, 7, and 8, rats were given ad libitum access to food and drinking solution. At the end of each metabolic cage session, urine output was measured, and blood and urine samples were collected in order to quantify serum and/or urine levels of PDS, creatinine, protein, uric acid, triglycerides, glucose, and electrolytes. These variables were used to calculate creatinine clearance (CCr) and proteinuria, and to evaluate general metabolic and renal health status.
Results for each time point are represented as mean±SE. Trend statistics are calculated by repeated measures ANOVA, with p<0.02 considered statistically significant.

[1] = preliminary evaluation, rats sacrificed at about 9 weeks of treatment, not shown

**Q.** How did the “uric acid serum levels” value (ZDF rats, summary statement of the study) turn out when `O=S(=O)([O-])CCCS(=O)(=O)[O-].[Na+].[Na+]` [PDS, 1,3 Propanedisulfonic Acid Disodium Salt] was run?
**A.** reduction of uric acid serum levels

**Q.** And the tolerability (male ZDF rats, PDS in 1% sucrose drinking solution, adjusted higher dose, satient condition)?
**A.** well tolerated

**Q.** And the “serum triglyceride levels versus Control animals” value (male ZDF rats, satient condition, after 8 weeks of treatment, p=0.0067, FIGS. 3A and 3B)?
**A.** reduced serum triglyceride levels

**Q.** And the “degree of decline of creatinine clearance normalized over body weight (CCr/BW) versus Control animals” value (male ZDF rats, satient condition, after 8 weeks of treatment, p=0.012, FIGS. 2A and 2B)?
**A.** significantly lowered the degree of decline

**Q.** What about the “uric acid clearance, effect of treatment over the study” value (male ZDF rats, satient condition, over 8 weeks, FIG. 4A) of the same compound?
**A.** trend in the positive effect

**Q.** And the “uric acid clearance compared to the control group at week 8” value (male ZDF rats, satient condition, week 8, FIG. 4B)?
**A.** significant difference compared to the control group

**Q.** And the “kidney mass versus control rats” value [1]?
**A.** greater kidney mass than control rats

**Q.** And the “mass of the heart ventricles versus control rats” value [1]?
**A.** slightly lower ventricular mass
